Among the data in US11986532B2 (Arvinas Operations, Inc., priority 2021, dated 2024) are Dmax and DC50 values, retold here.

The experiment has as its target T1, BCL6 (Homo sapiens, UniProt P41182).
T1 construct: endogenous in cells; host or cells: T47D breast cancer epithelial cells
Nature of the experiment: Immunofluorescence protocol for high content imaging of BCL6 (degradation) in T47D cells, 3 days compound treatment. It is filed as cell-based. The note with it: for Dmax: read-out: Mean Dmax (%)** category; for DC50: read-out: Mean DC50 (nM)* category. The procedure, abridged:
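Cells are seeded to reach ~70-90% confluence at endpoint, then dosed next day with compound at a final top concentration of 0.1 or 1 μM (11 points, 3-fold). After 3 days, BCL6 is detected by immunofluorescence and quantified by high-content imaging.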

The mark [1] stands for this setting: T47D cells, 3 days compound treatment.

Where two headings read alike, the source gives them in different places.

Regarding `CNC(=O)COc1cc2cc(Nc3nc(N4CCN(CC5CCC6(CC5)CN(c5ccc(F)c7c5CN(C5CCC(=O)NC5=O)C7=O)C6)CC4)ncc3Cl)ccc2n(C(C)C)c1=O` (stereo not drawn) [Compound 316, 2-{[6-({5-chloro-2-[4-({2-[2-(2,6-dioxopiperidin-3-yl)-7-fluoro-1-oxo-2,3-dihydro-1H-isoindol-4-yl]-2-azaspiro[3.5]nonan-7-yl}methyl)piperazin-1-yl]pyrimidin-4-yl}amino)-2-oxo-1-(propan-2-yl)-1,2-dihydroquinolin-3-yl]oxy}-N-methylacetamide], the DC50 is less than 10 nM. In addition, the Dmax (T47D) lay in the range of 50 to 70%.
For the molecule `CNC(=O)COc1cc2cc(Nc3nc(N4CCC(O[C@H]5C[C@H](N6CCN(c7ccc8c(c7)C(=O)N(C7CCC(=O)NC7=O)C8=O)C[C@@H]6C)C5)CC4)ncc3Cl)ccc2n(C(C)C)c1=O` (stereo partly drawn) [Compound 261, 2-({6-[(5-chloro-2-{4-[(1r,3r)-3-[(2S)-4-[2-(2,6-dioxopiperidin-3-yl)-1,3-dioxo-2,3-dihydro-1H-isoindol-5-yl]-2-methylpiperazin-1-yl]cyclobutoxy]piperidin-1-yl}pyrimidin-4-yl)amino]-2-oxo-1-(propan-2-yl)-1,2-dihydroquinolin-3-yl}oxy)-N-methylacetamide], the DC50 was in the range of 10 to 50 nM. The Dmax (T47D) was in the range of 50 to 70%.
Consider `CNC(=O)COc1cc2cc(Nc3nc(N4CCC(O[C@H]5C[C@H](N6CCC7(CCN(c8ccc9c(c8)C(=O)N(C8CCC(=O)NC8=O)C9=O)CC7)CC6)C5)CC4)ncc3Cl)ccc2n(C(C)C)c1=O` (stereo partly drawn) [Compound 343, 2-({6-[(5-chloro-2-{4-[(1r,3r)-3-{9-[2-(2,6-dioxopiperidin-3-yl)-1,3-dioxo-2,3-dihydro-1H-isoindol-5-yl]-3,9-diazaspiro [5.5]undecan-3-yl}cyclobutoxy]piperidin-1-yl}pyrimidin-4-yl)amino]-2-oxo-1-(propan-2-yl)-1,2-dihydroquinolin-3-yl}oxy)-N-methylacetamide], for which the DC50 was less than 10 nM. In addition, the Dmax (T47D) was 50 to 70%.
The like results for `CNC(=O)COc1cc2cc(Nc3nc(N4CCC(O[C@H]5C[C@H](N6CCC(F)(c7ccc8c(c7)C(=O)N(C7CCC(=O)NC7=O)C8=O)CC6)C5)CC4)ncc3Cl)ccc2n(C(C)C)c1=O` (stereo partly drawn) [Compound 276, 2-({6-[(5-chloro-2-{4-[(1r,3r)-3-{4-[2-(2,6-dioxopiperidin-3-yl)-1,3-dioxoisoindol-5-yl]-4-fluoropiperidin-1-yl}cyclobutoxy]piperidin-1-yl}pyrimidin-4-yl)amino]-1-isopropyl-2-oxoquinolin-3-yl}oxy)-N-methylacetamide] were, in that order, 10 to 50 nM and 50 to 70%.
Take `CNC(=O)COc1cc2cc(Nc3nc(N4CCC(O[C@H]5C[C@H](N6[C@H](C)CN(c7ccc8c(c7)CN(C7CCC(=O)NC7=O)C8=O)C[C@H]6C)C5)CC4)ncc3Cl)ccc2n(C(C)C)c1=O` (stereo partly drawn) [Compound 250, 2-({6-[(5-chloro-2-{4-[(1r,3r)-3-[(2R,6R)-4-[2-(2,6-dioxopiperidin-3-yl)-1-oxo-2,3-dihydro-1H-isoindol-5-yl]-2,6-dimethylpiperazin-1-yl]cyclobutoxy]piperidin-1-yl}pyrimidin-4-yl)amino]-2-oxo-1-(propan-2-yl)-1,2-dihydroquinolin-3-yl}oxy)-N-methylacetamide]: the DC50 was less than 10 nM. Besides, the Dmax (T47D) is 50 to 70%.
With `CNC(=O)COc1cc2cc(Nc3nc(N4CCC(OC5CN([C@H]6CC[C@@H](c7ccc8c(c7)CN(C7CCC(=O)NC7=O)C8=O)CC6)C5)CC4)ncc3Cl)ccc2n(C(C)C)c1=O` (single isomer, unassigned) [Compound 166, 2-[[6-[[5-chloro-2-[4-[1-[4-[2-(2,6-dioxo-3-piperidyl)-1-oxo-isoindolin-5-yl]cyclohexyl]azetidin-3-yl]oxy-1-piperidyl]pyrimidin-4-yl]amino]-1-isopropyl-2-oxo-3-quinolyl]oxy]-N-methyl-acetamide], under setting [1], the 50% degradation concentration (DC50) is less than 10 nM and the Dmax was 50 to 70%.
On to `CNC(=O)COc1cc2cc(Nc3nc(N4CCC(CN5CCC6(CN(c7cccc8c7C(=O)N(C7CCC(=O)NC7=O)C8=O)C6)C(F)C5)CC4)ncc3Cl)ccc2n(C(C)C)c1=O` (stereo not drawn) [Compound 325, 2-{[6-({5-chloro-2-[4-({2-[2-(2,6-dioxopiperidin-3-yl)-1,3-dioxo-2,3-dihydro-1H-isoindol-4-yl]-5-fluoro-2,7-diazaspiro[3.5]nonan-7-yl}methyl)piperidin-1-yl]pyrimidin-4-yl}amino)-2-oxo-1-(propan-2-yl)-1,2-dihydroquinolin-3-yl]oxy}-N-methylacetamide], for which the DC50 is less than 10 nM. For the same molecule, for the setting “T47D”, the Dmax was 50 to 70%.
With `CNC(=O)COc1cc2cc(Nc3nc(N4CCC(O[C@H]5C[C@H](N6CCC(F)(c7ccc8c(c7F)CN(C7CCC(=O)NC7=O)C8=O)CC6)C5)CC4)ncc3Cl)ccc2n(C(C)C)c1=O` (stereo partly drawn) [Compound 278, 2-({6-[(5-chloro-2-{4-[(1r,3r)-3-{4-[2-(2,6-dioxopiperidin-3-yl)-4-fluoro-1-oxo-2,3-dihydro-1H-isoindol-5-yl]-4-fluoropiperidin-1-yl}cyclobutoxy]piperidin-1-yl}pyrimidin-4-yl)amino]-2-oxo-1-(propan-2-yl)-1,2-dihydroquinolin-3-yl}oxy)-N-methylacetamide], the 50% degradation concentration (DC50) is less than 10 nM. The greatest degradation seen (Dmax) (T47D) is not below 70%.
`CNC(=O)COc1cc2cc(Nc3nc(N4CCC(O[C@H]5C[C@H](N6CCC(c7ccc8c(c7F)CN(C7CCC(=O)NC7=O)C8=O)CC6)C5)CC4)ncc3Cl)ccc2n(C2CCC2)c1=O` (stereo partly drawn) [Compound 190, 2-({6-[(5-chloro-2-{4-[(1r,3r)-3-{4-[2-(2,6-dioxopiperidin-3-yl)-4-fluoro-1-oxo-2,3-dihydro-1H-isoindol-5-yl]piperidin-1-yl}cyclobutoxy]piperidin-1-yl}pyrimidin-4-yl)amino]-1-cyclobutyl-2-oxo-1,2-dihydroquinolin-3-yl}oxy)-N-methylacetamide]: under setting [1], the DC50 was less than 10 nM and the Dmax was not below 70%.
For the molecule `CNC(=O)COc1cc2cc(Nc3nc(N4CCC5(CCN(CC6CCN(c7ccc8c(c7)C(=O)N(C7CCC(=O)NC7=O)C8=O)CC6)C5)C4)ncc3Cl)ccc2n(C(C)C)c1=O` (stereo not drawn) [Compound 4, 2-{[6-({5-chloro-2-[7-({1-[2-(2,6-dioxopiperidin-3-yl)-1,3-dioxo-2,3-dihydro-1H-isoindol-5-yl]piperidin-4-yl}methyl)-2,7-diazaspiro[4.4]nonan-2-yl]pyrimidin-4-yl}amino)-2-oxo-1-(propan-2-yl)-1,2-dihydroquinolin-3-yl]oxy}-N-methylacetamide], under setting [1], the DC50 was in the range of 10 to 50 nM and the Dmax is less than 50%.
Regarding `CNC(=O)COc1cc2cc(Nc3nc(N4CCC(O[C@H]5C[C@H](N6CC7(CCN(c8ccc9c(c8F)CN(C8CCC(=O)NC8=O)C9=O)CC7)C6)C5)CC4)ncc3Cl)ccc2n(C(C)C)c1=O` (stereo partly drawn) [Compound 393, 2-({6-[(5-chloro-2-{4-[(1r,3r)-3-{7-[2-(2,6-dioxopiperidin-3-yl)-4-fluoro-1-oxo-2,3-dihydro-1H-isoindol-5-yl]-2,7-diazaspiro[3.5]nonan-2-yl}cyclobutoxy]piperidin-1-yl}pyrimidin-4-yl)amino]-2-oxo-1-(propan-2-yl)-1,2-dihydroquinolin-3-yl}oxy)-N-methylacetamide], the DC50 is less than 10 nM. The greatest degradation seen (Dmax) (T47D) was not below 70%.
As to `CNC(=O)COc1cc2cc(Nc3nc(N4CCC(O[C@H]5C[C@H](N6CC[C@H](c7ccc8c(c7F)CN([C@H]7CCC(=O)NC7=O)C8=O)C[C@@H]6C)C5)CC4)ncc3Cl)ccc2n(C(C)C)c1=O` [Compound 293, 2-({6-[(5-chloro-2-{4-[(1r,3r)-3-[(2S,4S)-4-{2-[(3S)-2,6-dioxopiperidin-3-yl]-4-fluoro-1-oxo-2,3-dihydro-1H-isoindol-5-yl}-2-methylpiperidin-1-yl]cyclobutoxy]piperidin-1-yl}pyrimidin-4-yl)amino]-2-oxo-1-(propan-2-yl)-1,2-dihydroquinolin-3-yl}oxy)-N-methylacetamide], the DC50 was less than 10 nM. Besides, the greatest degradation seen (Dmax) (T47D) was 50 to 70%.
Consider `CNC(=O)COc1cc2cc(Nc3nc(N4CCC(CN5CC6(CCN(c7cc8c(cc7F)C(=O)N(C7CCC(=O)NC7=O)C8)CC6)C5)CC4)ncc3Cl)ccc2n(C(C)C)c1=O` (stereo not drawn) [Compound 84], for which, under setting [1], the DC50 was less than 10 nM and the Dmax was not below 70%.
Regarding `CNC(=O)COc1cc2cc(Nc3nc(N4CCC(CN5CCC6(CC5)CC(c5ccc7c(c5)C(=O)N(C5CCC(=O)NC5=O)C7=O)C6)CC4)ncc3Cl)ccc2n(C(C)C)c1=O` (stereo not drawn) [Compound 150, 2-{[6-({5-chloro-2-[4-({2-[2-(2,6-dioxopiperidin-3-yl)-1,3-dioxo-2,3-dihydro-1H-isoindol-5-yl]-7-azaspiro[3.5]nonan-7-yl}methyl)piperidin-1-yl]pyrimidin-4-yl}amino)-2-oxo-1-(propan-2-yl)-1,2-dihydroquinolin-3-yl]oxy}-N-methylacetamide], under setting [1], the half-maximal degradation concentration (DC50) is 10 to 50 nM and the Dmax is 50 to 70%.
Consider `CNC(=O)COc1cc2cc(Nc3nc(N4CCC(O[C@H]5C[C@H](N6CCC(c7ccc8c(c7)C(=O)N(C7CCC(=O)NC7=O)C8=O)C6)C5)CC4)ncc3Cl)ccc2n(C(C)C)c1=O` (stereo partly drawn) [Compound 256, 2-({6-[(5-chloro-2-{4-[(1r,3r)-3-{3-[2-(2,6-dioxopiperidin-3-yl)-1,3-dioxo-2,3-dihydro-1H-isoindol-5-yl]pyrrolidin-1-yl}cyclobutoxy]piperidin-1-yl}pyrimidin-4-yl)amino]-2-oxo-1-(propan-2-yl)-1,2-dihydroquinolin-3-yl}oxy)-N-methylacetamide], for which the 50% degradation concentration (DC50) is 10 to 50 nM. Besides, where the note is “T47D”, the Dmax was 50 to 70%.
